# From patent publication EP0440787B1, “COMPOUNDS OF 1,4-BIS(AMINO)BENZO(G)PHTHALAZENE” (CONSEJO SUPERIOR DE INVESTIGACIONES CIENTIFICAS, priority 1989, dated 1990)
# Like-named read-outs stand apart in the source and are kept apart here. Marks after values point to notes of the source that are not given here. Starred links: 1 amine or outer side, 2 acyl side, 3 side chain; linkers in the order of their positions; H or OH if unused. Positions of bridges follow the written chain, without caps; N, C: chain ends. Non-standard residues stand in square brackets, D forms with d. Residues, ends and D or L forms follow the SMILES beside them. Chains are numbered I, II in the order given. Actinocin(9to1) = Cc1c2oc3c(C)ccc(C(=O)[*:1])c3nc-2c(C(=O)[*:2])c(N)c1=O; NMeV = CN[C@H](C(=O)O)C(C)C; Sar = CNCC(=O)O
# Tests used:
# [1] = clinical drugs, from reference (12); cited from earlier work
# [2] = system: HeLa cell lines (from a human uterine cervix carcinoma); experiment: Cytostatic and cytocidal activity in vitro, HeLa cell cultures; type: cell-based
# Procedure: (§1) The cytostatic and cytocidal activity of BBPh has been evaluated employing HeLa cell lines (from a human uterine cervix carcinoma), ADLD-clon (from a human malignant melanona) and a semicontinuos LMMB cell line (from normal human tonsilar fibroblasts).
# (§2) In order to perform both "in vitro" and "in vivo" experiments a concentrated stock solution of BBPh in dimethyl sulfoxide (DMSO) was prepared. From it increasing diluted solutions in McCoy's R5aI grown medium supplemented with 5% human serum, 5% calf serum, 5% fetal bovine serum, 100 IU/mL penicillin, 100 ug/mL streptomycin and 16 ug/mL gentamycin were obtained.
# (§3) Serial dilutions of BBPh and the solvent were assayed in cultures seeded 24 hours before on 96-well "Microtiter" plates. The seeding was carried out by depositing 200 µL of cell suspension in growth medium in each well, adjusted to 3 x 10^5/mL HeLa cells, 9 x 10^5/mL ADLD-clon cells or 4 x 10^5/mL LMMB cells.
# (§4) The plates with different concentrations of BBPh and control solutions were incubated at 37°C in a humidily saturated air containing 5% CO2.
# (§5) Then the plates were fixed and stained to stimate the effects of BBPh under the conditions described by Alvarez (1986) (11) taken Adriamycin as antitumoral compound of reference. […]
# [3] = system: ADLD-clon (from a human malignant melanona); experiment: Cytostatic and cytocidal activity in vitro, ADLD-clon cell cultures; type: cell-based
# Procedure: as §1, §2, §3, §4, §5
# [4] = system: LMMB cell line (from normal human tonsilar fibroblasts); experiment: Cytostatic and cytocidal activity in vitro, LMMB normal cell cultures; type: cell-based; details: Fibroblast
# Procedure: as §1, §2, §3, §4, §5
# [5] = system: Ehrlich ascites cancer cells; experiment: In vivo antitumoral activity, subcutaneous transplant of Ehrlich ascites cancer cells in mice; parameters: species or system swiss mice
# Procedure: Five groups of six 2-month male swiss mice weighing 25 grams were disposed. Each animal received a transplant of 10^5 Ehrlich ascites cancer cells by the subcutaneous route in the interscapular region. Fourteen days later, when the tumors were evident and measured more than 3 millimeter in diameter, the animals were submitted to the different treatments.
# Group 1 received a first intraperitoneal dose of 300 µL of DMSO followed by equal subcutaneous doses, the next three consecutive days.
# Group 2 received a single intraperitoneal dose of 100 µg of BBPh solubilized in 300 µL of DMSO, followed by equal subcutaneous doses the next three consecutive days.
# Group 3 received a single intraperitoneal dose of 500 µg of BBPh in 300 µL of DMSO.
# Group 4 received a single intraperitoneal dose of 1.000 µg of BBPh in 300 µL of DMSO.
# Group 5 received a single subcutaneous dose of 4.000 µg BBPh in an oily solution.
# [6] = 50 per 100 lethal dose (LD50) of BBPh and toxicity in mice; type: in vivo; details: DMSO as solvent
# pKa of BBPh = type: physicochemical
# Text: Some anticancer drugs such as mitomycin C and antinomycin D which interact with nucleic acids have shown activity against Trypanosoma cruzi (16). […] Following a similar behaviour the 1,4-bis(buthylamino)benzo[g] phthalazine (BBPh) which is able to form 1,4-bis(buthylamino) benzo[g]phthalazinium cations at physiological PH (PKa of BBPh = 8.6) and is a potential intercalating agent has shown both, antineoplasic and trypanosomicide activities.
# T. cruzi = experiment: Trypanosomicide activity in vitro in infected NMRI mice blood; type: cell-based, Trypanosoma cruzi; details: 24 h at 4°C; for N° Tryp/mL: controls Cd 298, Ct 247
# [7] = system: Trichomonas vaginalis (Srain G); experiment: microbe, parasite or virus in culture; details: for MCC: read-out: Trichomonacidal activity MCC; for MIC: read-out: Trichomonacidal activity MIC
# Procedure: The cultures of the strains of Trichomonas vaginalis (Srain G) used as experimental model were grown in Diamond Medium (TYM) without agar (100.000 organisms/mL). […] Minimal inhibition concentration (MIC) and Minimal cytocidal concentration (MCC) were established in accordance with the definitions proposed by Escario et al. (19).
# [8] = group 5: BBPh in oily solution 1 x 4.0 mg s.c. (160 mg/kg)
# [9] = overall dose 40 mg/Kg: single i.p. dose of 1.0 mg in DMSO
smiles,measurement,setting,value
"Cc1c2oc3c(C)ccc(C(=O)N[C@@H]4C(=O)N[C@H](C(C)C)C(=O)N5CCC[C@H]5C(=O)N(C)CC(=O)N(C)[C@@H](C(C)C)C(=O)O[C@@H]4C)c3nc-2c(C(=O)N[C@@H]2C(=O)N[C@H](C(C)C)C(=O)N3CCC[C@H]3C(=O)N(C)CC(=O)N(C)[C@@H](C(C)C)C(=O)O[C@@H]2C)c(N)c1=O [Actinomicin D] (I: T[dV]P[Sar][NMeV] / II: T[dV]P[Sar][NMeV]; ester I:1-I:C, II:1-II:C; linker I:N-II:N via Actinocin(9to1))",LD50,[1],0.095 mg/kg
"COc1cccc2c1C(=O)c1c(O)c3c(c(O)c1C2=O)C[C@@](O)(C(=O)CO)C[C@@H]3O[C@H]1C[C@H](N)[C@H](O)[C@H](C)O1 [Adriamycin, reference compound]",IC50,[2]; read-out: ID50,0.33 µg/mL
same,IC50,[3]; read-out: ID50,0.33 µg/mL
same,IC50,[4]; read-out: ID50,0.07 µg/mL
"CCCCNc1nnc(NCCCC)c2cc3ccccc3cc12 [BBPh, 1,4-bis(n-butylamino)benzo[g]phthalazine]",IC50,"[2]; concentration producing death or growth inhibition of 50% of the cells, read-out: ID50 (the source's name)",0.67 µg/mL
same,IC50,"[3]; ADLD-clon, concentration producing death or growth inhibition of 50% of the cells, read-out: ID50 (the source's name)",0.67 µg/mL
same,IC50,"[4]; LMMB normal cells, concentration producing death or growth inhibition of 50% of the cells, read-out: ID50 (the source's name)",1.08 µg/mL
same,T/S,[5]; group 2: BBPh in DMSO 1 x 0.1 mg i.p. + 3 x 0.1 mg s.c.,6/5
same,SURVIVAL(DAYS) MST,"[5]; group 2: BBPh in DMSO 1 x 0.1 mg i.p. + 3 x 0.1 mg s.c., DMSO control 59",84 days
same,SURVIVAL(DAYS) MST,[5]; [8],86 days
same,T/S,[5]; [8],5/5
same,Toxic death,"[5]; overall dose 16 mg/Kg: 0.1 mg i.p. then similar s.c. doses next three days, DMSO",1/6
same,T/C (%),"[5]; overall dose 16 mg/Kg: 0.1 mg i.p. then similar s.c. doses next three days, DMSO, active when > 125%",142^f %
same,TST,"[5]; overall dose 16 mg/Kg: 0.1 mg i.p. then similar s.c. doses next three days, DMSO, control 59",84 days
same,Toxic death,[5]; overall dose 20 mg/Kg: single i.p. dose of 0.5 mg in DMSO,4/6
same,T/C (%),"[5]; overall dose 20 mg/Kg: single i.p. dose of 0.5 mg in DMSO, active when > 125%",161^f %
same,TST,"[5]; overall dose 20 mg/Kg: single i.p. dose of 0.5 mg in DMSO, control 59",96 days
same,T/C (%),[5]; [9],Toxic
same,TST,[5]; [9],1 days
same,Toxic death,[5]; [9],6/6
same,toxicity,"[6]; i.p., single dose of 20 mg/Kg",toxic
same,LD50,"[6]; mouse, in vivo, ip, BBPh",12 mg/kg
same,pKa,pKa of BBPh,8.6
same,N° Tryp/mL,T. cruzi; BBPh 75 µg/mL,0 Tryp/mL
same,N° Tryp/mL,T. cruzi; BBPh 125 µg/mL,0 Tryp/mL
same,N° Tryp/mL,T. cruzi; BBPh 250 µg/mL,0 Tryp/mL
same,N° Tryp/mL,T. cruzi; BBPh 500 µg/mL,0 Tryp/mL
same,N° Tryp/mL,T. cruzi; BBPh 1000 µg/mL,0 Tryp/mL
same,parasitemia,"T. cruzi; all samples, 1000 to 75 ug/mL",negative parasitemia
same,MCC,[7],10 to 25 µg/mL
same,MIC,[7],5 to 10 µg/mL
COc1cccc2c1C(=O)c1c(O)c3c(c(O)c1C2=O)C[C@@](O)(C(C)=O)C[C@@H]3O[C@H]1C[C@H](N)[C@H](O)[C@H](C)O1 [Daunomycin],LD50,[1],9.2 mg/kg
"Cc1ncc([N+](=O)[O-])n1CCO [Metronidazole, reference compound]",MCC,[7],8 µg/mL
same,MIC,[7],4 to 8 µg/mL
CC[C@]1(O)C[C@H]2CN(CCc3c([nH]c4ccccc34)[C@@](C(=O)OC)(c3cc4c(cc3OC)N(C=O)[C@H]3[C@@](O)(C(=O)OC)[C@H](OC(C)=O)[C@]5(CC)C=CCN6CC[C@]43[C@@H]65)C2)C1 [Vincristine],LD50,[1],4.5 mg/kg
